Reference: patent US10941113B2, “Sulfamoyl-arylamides and the use thereof as medicaments for the treatment of hepatitis B” (Janssen Sciences Ireland UC, priority 2013, dated 2021)

Assays:
Assay type in all cases: cell-based
[1] = Cytotoxicity in HepG2 cells, Resazurin assay; conditions: human, incubated 4 days, Resazurin viability
[2] = test system: HBV; assay: Anti-HBV activity, HepG2.2.15 stable transfected cell line, HBV DNA from secreted virions by realtime PCR; conditions: Hepatitis B virus, 144 h, HepG2.2.15 cells, 6 days of treatment
[3] = test system: HBV; assay: Anti-HBV activity, HepG2.117 inducible HBV producing cell line (Tet-off), intracellular HBV DNA by realtime PCR; conditions: Hepatitis B virus, 72 h, HepG2.117 cells, 3 days of treatment

SMILES | CC50 at 4 days [1] [µM] | EC50 [2] [µM] | EC50 [3] [µM]
CC(=O)NCC(C)NS(=O)(=O)c1cccc(C(=O)Nc2ccc(F)c(C)c2)c1 (stereo not drawn) [Compound 9] | > 25 | 1.3 | 0.56
Cc1cc(NC(=O)c2cccc(S(=O)(=O)N[C@H](C)CNC(=O)OC(C)(C)C)c2)ccc1F [Compound 18] | > 25 | 0.2 | 0.19
Cc1cc(NC(=O)c2cccc(S(=O)(=O)N[C@H](C)CS(C)(=O)=O)c2)ccc1F [Compound 42] | > 25 | 0.25 | 0.15
Cc1cc(NC(=O)c2cccc(S(=O)(=O)N[C@@H](C)C(=O)N(C)C)c2)ccc1F [Compound 35] | > 25 | 2.7 | 3.62
Cc1cc(NC(=O)c2cccc(S(=O)(=O)N[C@H](CO)C(C)C)c2)ccc1F [Compound 11] | > 25 | 0.55 | 0.83
Cc1cc(NC(=O)c2cccc(S(=O)(=O)N[C@@H](C)C(N)=O)c2)ccc1F [Compound 23] | > 25 | 1.1 | 1.43
Cc1cc(NC(=O)c2cccc(S(=O)(=O)NC(C)(C)CCO)c2)ccc1F [Compound 15] | > 25 | 0.22 | 0.32
Cc1cc(NC(=O)c2cccc(S(=O)(=O)NC(C)C(C)O)c2)ccc1F (stereo not drawn) [Compound 33] | > 25 | 0.32 | 0.26
Cc1cc(NC(=O)c2cccc(S(=O)(=O)N[C@H](C)C(=O)N(C)C)c2)ccc1F [Compound 40] | > 25 | 2.28 | 2.66
Cc1cc(NC(=O)c2cccc(S(=O)(=O)NC(C)(C)CO)c2)ccc1F [Compound 14] | > 25 | 0.38 | 0.53
COC(=O)NCC(C)NS(=O)(=O)c1cccc(C(=O)Nc2ccc(F)c(C)c2)c1 (stereo not drawn) [Compound 1] | > 25 | 0.13 | 0.37
Cc1cc(NC(=O)c2cccc(S(=O)(=O)NCCCC(=O)N(C)C)c2)ccc1F [Compound 17] | > 25 | 0.26 | 0.61
Cc1cc(NC(=O)c2cccc(S(=O)(=O)N[C@@H](C)CNC(=O)OC(C)(C)C)c2)ccc1F [Compound 19] | > 25 | 0.74 | 0.5
COCC(C)NS(=O)(=O)c1cccc(C(=O)Nc2ccc(F)c(C)c2)c1 (stereo not drawn) [Compound 5] | > 25 | 0.24 | 0.84
CNC(=O)CCC(C)NS(=O)(=O)c1cccc(C(=O)Nc2ccc(F)c(C)c2)c1 (stereo not drawn) [Compound 7] | > 25 | 0.54 | 0.24
COCC(C)(CCO)NS(=O)(=O)c1cccc(C(=O)Nc2ccc(F)c(C)c2)c1 (stereo not drawn) [Compound 27] | > 25 | 1.16 | 0.96
Cc1cc(NC(=O)c2cccc(S(=O)(=O)N[C@H](C)CC#N)c2)ccc1F (racemic) [Compound 10a] | > 25 | 0.1 | 0.14
Cc1cc(NC(=O)c2cccc(S(=O)(=O)NC(C)CCO)c2)ccc1F (stereo not drawn) [Compound 13] | > 25 | 0.21 | 0.71
CCC[C@@H](CO)NS(=O)(=O)c1cccc(C(=O)Nc2ccc(F)c(C)c2)c1 [Compound 12] | > 25 | 0.65 | 0.82
COC(C)(C)CC(C)NS(=O)(=O)c1cccc(C(=O)Nc2ccc(F)c(C)c2)c1 (stereo not drawn) [Compound 28] | > 25 | 0.27 | 1.41
Cc1cc(NC(=O)c2cccc(S(=O)(=O)NC(C)CO)c2)ccc1F (stereo not drawn) [Compound 4, N-(4-fluoro-3-methyl-phenyl)-3-[(2-hydroxy-1-methyl-ethyl)sulfamoyl]benzamide] | > 25 | 0.28 | 0.32
COC(=O)CCC(C)NS(=O)(=O)c1cccc(C(=O)Nc2ccc(F)c(C)c2)c1 (stereo not drawn) [Compound 8] | > 25 | 1.4 | 2.8
Cc1cc(NC(=O)c2cccc(S(=O)(=O)NC(C)C(C)CO)c2)ccc1F (stereo not drawn) [Compound 25] | > 25 | 0.25 | 0.57

SMILES | CC50 at 4 days [1] [µM] | EC50 [2] [µM] | EC50 [3] [µM]
Cc1cc(NC(=O)c2cccc(S(=O)(=O)N[C@H](C)CO)c2)ccc1F [Compound 4a] | > 25 | 0.21 | 0.26
COC(=O)NC[C@@H](C)NS(=O)(=O)c1cccc(C(=O)Nc2ccc(F)c(C)c2)c1 [Compound 1a] | > 25 | 0.18 | 0.11
Cc1cc(NC(=O)c2cccc(S(=O)(=O)NC(C)CN(C)C)c2)ccc1F (stereo not drawn) [Compound 3] | > 25 | 7.5 | 1.1
CNCC(C)NS(=O)(=O)c1cccc(C(=O)Nc2ccc(F)c(C)c2)c1 (stereo not drawn) [Compound 2] | > 25 | 9.4 | 2.4
Cc1cc(NC(=O)c2cccc(S(=O)(=O)NC(C)CC#N)c2)ccc1F (racemic) [Compound 10] | > 25 | 0.22 | 0.19
Cc1cc(NC(=O)c2cc(S(=O)(=O)N[C@H](C)CO)ccc2C)ccc1F [Compound 38] | > 25 | 0.16 | 0.18
CNC(=O)[C@@H](C)NS(=O)(=O)c1cccc(C(=O)Nc2ccc(F)c(C)c2)c1 [Compound 41] | > 25 | 2.22 | 1.35
Cc1cc(NC(=O)c2cccc(S(=O)(=O)NC(C)CCCC(C)(C)O)c2)ccc1F (racemic) [Compound 21] | > 25 | 0.17 | 1.71
Cc1cc(NC(=O)c2cccc(S(=O)(=O)NCC(C)(C)C(=O)O)c2)ccc1F [Compound 37] | > 25 | 2.68 | 3.03
CCC(C)(CO)NS(=O)(=O)c1cccc(C(=O)Nc2ccc(F)c(C)c2)c1 (stereo not drawn) [Compound 26] | > 25 | 0.39 | 0.34
Cc1cc(NC(=O)c2cccc(S(=O)(=O)NC(C)CC(=O)N(C)C)c2)ccc1F (stereo not drawn) [Compound 39] | > 25 | 1.05 | 0.86
Cc1cc(NC(=O)c2cccc(S(=O)(=O)NC(C)(C)CC(C)O)c2)ccc1F (stereo not drawn) [Compound 36] | > 25 | 0.27 | 0.15
COCCC(C)NS(=O)(=O)c1cccc(C(=O)Nc2ccc(F)c(C)c2)c1 (stereo not drawn) [Compound 24] | > 25 | 0.21 | 1.37
C#CC(C)(C)NS(=O)(=O)c1cccc(C(=O)Nc2ccc(F)c(C)c2)c1 [Compound 16] | > 25 | 0.19 | 0.59
Cc1cc(NC(=O)c2cccc(S(=O)(=O)NC(C)C(C)(C)O)c2)ccc1F (stereo not drawn) [Compound 30] | > 25 | 0.26 | 0.17
Cc1cc(NC(=O)c2cccc(S(=O)(=O)N[C@@H](C)CO)c2)ccc1F [Compound 4b] | > 25 | 0.4 | 0.94
Cc1cc(NC(=O)c2cccc(S(=O)(=O)NC(C)CCC(=O)N(C)C)c2)ccc1F (stereo not drawn) [Compound 6] | > 25 | 0.18 | 0.11
COC(=O)NC[C@H](C)NS(=O)(=O)c1cccc(C(=O)Nc2ccc(F)c(C)c2)c1 [Compound 1b] | > 25 | 1.85 | 1.57
Cc1cc(NC(=O)c2cccc(S(=O)(=O)NCCS(C)(=O)=O)c2)ccc1F [Compound 32] | > 25 | 0.19 | 0.64
COCC(C)(C)NS(=O)(=O)c1cccc(C(=O)Nc2ccc(F)c(C)c2)c1 [Compound 34] | > 25 | 0.54 | 0.64
COCC(C)(CO)NS(=O)(=O)c1cccc(C(=O)Nc2ccc(F)c(C)c2)c1 (stereo not drawn) [Compound 31] | > 25 | 0.48 | 0.47
COC(=O)N(C)CC(C)NS(=O)(=O)c1cccc(C(=O)Nc2ccc(F)c(C)c2)c1 (stereo not drawn) [Compound 20] | > 25 | 0.55 | 0.56
